Patent US20210261621A1, “Preparation of Dilipid Polymixins and Use Thereof as Antimicrobial Adjuvants” (priority 2018, published 2021)
Where two headings read alike, the source gives them in different places. Positions of bridges follow the written chain, without caps; N, C: chain ends. Non-standard residues stand in square brackets, D forms with d. Residues, ends and D or L forms follow the SMILES beside them. *: point of attachment. Lauroyl = CCCCCCCCCCCC(=O)*; Dab = NCC[C@H](N)C(=O)O; Butyryl = CCCC(=O)*

Tested on: P. aeruginosa PAO1
Set-up: MICDrug / MICDrug in combo / MIC of adjuvant in combo: unit not given beside the values
Conditions: for MIC of adjuvant alone (MIC1, MIC2, MIC3, MIC4, MIC5, MICPMBN): one value per checkerboard, in µg/mL
[1] = combination with Chloramphenicol
[2] = in combination with Ceftazidime
[3] = in combination with Chloramphenicol
[4] = in combination with Ciprofloxacin
[5] = in combination with Clindamycin
[6] = in combination with Doxycycline
[7] = in combination with Minocycline
[8] = in combination with Moxifloxacin
[9] = in combination with Piperacillin
[10] = in combination with Pleuromutilin
[11] = in combination with Streptomycin
[12] = in combination with Trimethoprim

CCCC(=O)NCC[C@H](NC(=O)CCC)C(=O)N[C@H](C(=O)N[C@@H](CCN)C(=O)N[C@H]1CCNC(=O)[C@H]([C@@H](C)O)NC(=O)[C@H](CCN)NC(=O)[C@H](CCN)NC(=O)[C@H](CC(C)C)NC(=O)[C@@H](Cc2ccccc2)NC(=O)[C@H](CCN)NC1=O)[C@@H](C)O [Compound 1, Dibutyric Acid (Di-C4) Polymyxin] (Butyryl-[Dab](Butyryl)T[Dab][Dab][Dab][dF]L[Dab][Dab]T; lactam 4-C)
MIC of adjuvant alone (MIC1, MIC2, MIC3, MIC4, MIC5, MICPMBN): 128 | Interpretation (combination with Aztreonam): Synergy (An FIC index of ≤0.5, 0.5<x≤4, or >4 denotes for synergistic, additive or antagonistic interaction, respectively) | Interpretation (combination with Ceftazidime): Synergy (An FIC index of ≤0.5, 0.5<x≤4, or >4 denotes for synergistic, additive or antagonistic interaction, respectively) | Interpretation [1]: Synergy (An FIC index of ≤0.5, 0.5<x≤4, or >4 denotes for synergistic, additive or antagonistic interaction, respectively) | Interpretation (combination with Ciprofloxacin): Synergy (An FIC index of ≤0.5, 0.5<x≤4, or >4 denotes for synergistic, additive or antagonistic interaction, respectively) | Interpretation (combination with Clindamycin): Synergy (An FIC index of ≤0.5, 0.5<x≤4, or >4 denotes for synergistic, additive or antagonistic interaction, respectively) | Interpretation (combination with Doripenem): Additive (An FIC index of ≤0.5, 0.5<x≤4, or >4 denotes for synergistic, additive or antagonistic interaction, respectively) | Interpretation (combination with Doxycycline): Synergy (An FIC index of ≤0.5, 0.5<x≤4, or >4 denotes for synergistic, additive or antagonistic interaction, respectively) | Interpretation (combination with Fosfomycin): Synergy (An FIC index of ≤0.5, 0.5<x≤4, or >4 denotes for synergistic, additive or antagonistic interaction, respectively) | Interpretation (combination with Gentamicin): Additive (An FIC index of ≤0.5, 0.5<x≤4, or >4 denotes for synergistic, additive or antagonistic interaction, respectively) | Interpretation (combination with Linezolid): Synergy (An FIC index of ≤0.5, 0.5<x≤4, or >4 denotes for synergistic, additive or antagonistic interaction, respectively) | Interpretation (combination with Meropenem): Synergy (An FIC index of ≤0.5, 0.5<x≤4, or >4 denotes for synergistic, additive or antagonistic interaction, respectively) | Interpretation (combination with Minocycline): Synergy (An FIC index of ≤0.5, 0.5<x≤4, or >4 denotes for synergistic, additive or antagonistic interaction, respectively) | Interpretation (combination with Moxifloxacin): Synergy (An FIC index of ≤0.5, 0.5<x≤4, or >4 denotes for synergistic, additive or antagonistic interaction, respectively) | Interpretation (combination with Novobiocin): Synergy (An FIC index of ≤0.5, 0.5<x≤4, or >4 denotes for synergistic, additive or antagonistic interaction, respectively) | Interpretation (combination with Piperacillin): Additive (An FIC index of ≤0.5, 0.5<x≤4, or >4 denotes for synergistic, additive or antagonistic interaction, respectively) | Interpretation (combination with Pleuromutilin): Synergy (An FIC index of ≤0.5, 0.5<x≤4, or >4 denotes for synergistic, additive or antagonistic interaction, respectively) | Interpretation (combination with Rifampicin): Synergy (An FIC index of ≤0.5, 0.5<x≤4, or >4 denotes for synergistic, additive or antagonistic interaction, respectively) | Interpretation (combination with Streptomycin): Additive (An FIC index of ≤0.5, 0.5<x≤4, or >4 denotes for synergistic, additive or antagonistic interaction, respectively) | Interpretation (combination with Tobramycin): Additive (An FIC index of ≤0.5, 0.5<x≤4, or >4 denotes for synergistic, additive or antagonistic interaction, respectively) | Interpretation (combination with Trimethoprim): Synergy (An FIC index of ≤0.5, 0.5<x≤4, or >4 denotes for synergistic, additive or antagonistic interaction, respectively) | Interpretation (combination with Vancomycin): Synergy (An FIC index of ≤0.5, 0.5<x≤4, or >4 denotes for synergistic, additive or antagonistic interaction, respectively) | MIC of adjuvant in combo (in combination with Aztreonam): (32) | MIC of adjuvant in combo [2]: (32) | MIC of adjuvant in combo [3]: (4) | MIC of adjuvant in combo [4]: (32) | MIC of adjuvant in combo [5]: (8) | MIC of adjuvant in combo (in combination with Doripenem): (32) | MIC of adjuvant in combo [6]: (2) | MIC of adjuvant in combo (in combination with Fosfomycin): (16) | MIC of adjuvant in combo (in combination with Gentamicin): (0.0625) | MIC of adjuvant in combo (in combination with Linezolid): (4) | MIC of adjuvant in combo (in combination with Meropenem): (32) | MIC of adjuvant in combo [7]: (2) | MIC of adjuvant in combo [8]: (16) | MIC of adjuvant in combo (in combination with Novobiocin): (8) | MIC of adjuvant in combo [9]: (32) | MIC of adjuvant in combo [10]: (8) | MIC of adjuvant in combo (in combination with Rifampicin): (2) | MIC of adjuvant in combo [11]: (32) | MIC of adjuvant in combo (in combination with Tobramycin): (0.5) | MIC of adjuvant in combo [12]: (16) | MIC of adjuvant in combo (in combination with Vancomycin): (32)

CCCCCCCCCCCC(=O)NCC[C@H](NC(=O)CCCCCCCCCCC)C(=O)N[C@H](C(=O)N[C@@H](CCN)C(=O)N[C@H]1CCNC(=O)[C@H]([C@@H](C)O)NC(=O)[C@H](CCN)NC(=O)[C@H](CCN)NC(=O)[C@H](CC(C)C)NC(=O)[C@@H](Cc2ccccc2)NC(=O)[C@H](CCN)NC1=O)[C@@H](C)O [Compound 3, Didodecanoic Acid (Di-C12) Polymyxin] (Lauroyl-[Dab](Lauroyl)T[Dab][Dab][Dab][dF]L[Dab][Dab]T; lactam 4-C)
MIC of adjuvant alone (MIC1, MIC2, MIC3, MIC4, MIC5, MICPMBN): 32 | Interpretation (combination with Aztreonam): Additive (An FIC index of ≤0.5, 0.5<x≤4, or >4 denotes for synergistic, additive or antagonistic interaction, respectively) | Interpretation (combination with Ceftazidime): Additive (An FIC index of ≤0.5, 0.5<x≤4, or >4 denotes for synergistic, additive or antagonistic interaction, respectively) | Interpretation [1]: Additive (An FIC index of ≤0.5, 0.5<x≤4, or >4 denotes for synergistic, additive or antagonistic interaction, respectively) | Interpretation (combination with Ciprofloxacin): Additive (An FIC index of ≤0.5, 0.5<x≤4, or >4 denotes for synergistic, additive or antagonistic interaction, respectively) | Interpretation (combination with Clindamycin): Additive (An FIC index of ≤0.5, 0.5<x≤4, or >4 denotes for synergistic, additive or antagonistic interaction, respectively) | Interpretation (combination with Doripenem): Additive (An FIC index of ≤0.5, 0.5<x≤4, or >4 denotes for synergistic, additive or antagonistic interaction, respectively) | Interpretation (combination with Doxycycline): Additive (An FIC index of ≤0.5, 0.5<x≤4, or >4 denotes for synergistic, additive or antagonistic interaction, respectively) | Interpretation (combination with Fosfomycin): Additive (An FIC index of ≤0.5, 0.5<x≤4, or >4 denotes for synergistic, additive or antagonistic interaction, respectively) | Interpretation (combination with Gentamicin): Additive (An FIC index of ≤0.5, 0.5<x≤4, or >4 denotes for synergistic, additive or antagonistic interaction, respectively) | Interpretation (combination with Linezolid): Additive (An FIC index of ≤0.5, 0.5<x≤4, or >4 denotes for synergistic, additive or antagonistic interaction, respectively) | Interpretation (combination with Meropenem): Additive (An FIC index of ≤0.5, 0.5<x≤4, or >4 denotes for synergistic, additive or antagonistic interaction, respectively) | Interpretation (combination with Minocycline): Additive (An FIC index of ≤0.5, 0.5<x≤4, or >4 denotes for synergistic, additive or antagonistic interaction, respectively) | Interpretation (combination with Moxifloxacin): Additive (An FIC index of ≤0.5, 0.5<x≤4, or >4 denotes for synergistic, additive or antagonistic interaction, respectively) | Interpretation (combination with Novobiocin): Additive (An FIC index of ≤0.5, 0.5<x≤4, or >4 denotes for synergistic, additive or antagonistic interaction, respectively) | Interpretation (combination with Piperacillin): Additive (An FIC index of ≤0.5, 0.5<x≤4, or >4 denotes for synergistic, additive or antagonistic interaction, respectively) | Interpretation (combination with Pleuromutilin): Additive (An FIC index of ≤0.5, 0.5<x≤4, or >4 denotes for synergistic, additive or antagonistic interaction, respectively) | Interpretation (combination with Rifampicin): Additive (An FIC index of ≤0.5, 0.5<x≤4, or >4 denotes for synergistic, additive or antagonistic interaction, respectively) | Interpretation (combination with Streptomycin): Additive (An FIC index of ≤0.5, 0.5<x≤4, or >4 denotes for synergistic, additive or antagonistic interaction, respectively) | Interpretation (combination with Tobramycin): Additive (An FIC index of ≤0.5, 0.5<x≤4, or >4 denotes for synergistic, additive or antagonistic interaction, respectively) | Interpretation (combination with Trimethoprim): Additive (An FIC index of ≤0.5, 0.5<x≤4, or >4 denotes for synergistic, additive or antagonistic interaction, respectively) | Interpretation (combination with Vancomycin): Additive (An FIC index of ≤0.5, 0.5<x≤4, or >4 denotes for synergistic, additive or antagonistic interaction, respectively) | MIC of adjuvant in combo (in combination with Aztreonam): (16) | MIC of adjuvant in combo [2]: (16) | MIC of adjuvant in combo [3]: (16) | MIC of adjuvant in combo [4]: (0.25) | MIC of adjuvant in combo [5]: (16) | MIC of adjuvant in combo (in combination with Doripenem): (16) | MIC of adjuvant in combo [6]: (16) | MIC of adjuvant in combo (in combination with Fosfomycin): (8) | MIC of adjuvant in combo (in combination with Gentamicin): (0.25) | MIC of adjuvant in combo (in combination with Linezolid): (32) | MIC of adjuvant in combo (in combination with Meropenem): (16) | MIC of adjuvant in combo [7]: (16) | MIC of adjuvant in combo [8]: (16) | MIC of adjuvant in combo (in combination with Novobiocin): (16) | MIC of adjuvant in combo [9]: (16) | MIC of adjuvant in combo [10]: (16) | MIC of adjuvant in combo (in combination with Rifampicin): (8) | MIC of adjuvant in combo [11]: (0.25) | MIC of adjuvant in combo (in combination with Tobramycin): (0.25) | MIC of adjuvant in combo [12]: (16) | MIC of adjuvant in combo (in combination with Vancomycin): (16) | adjuvant activity (potentiation of the panel of 21 antibiotics) (result in words): did not enhance the activity of any antibiotics
